From US20260305610A1, “TRIAZOLE COMPOUND, AND PREPARATION METHOD THEREFOR, HERBICIDAL COMPOSITION AND USE THEREOF” (QINGDAO KINGAGROOT CHEMICAL COMPOUND CO., LTD., priority 2023, published 2026)

Legend:
[1] = system: monocotyledonous and dicotyledonous weeds; test: Pre-emergence test experiment (weeds); assay type: in vivo; parameters: key: 9: completely dead; 8: growth control rate is greater than or equal to 90% and less than 100%; 7: growth control rate is greater than or equal to 80% and less than 90%; 6: growth control rate is greater than or equal to 70% and less than 80%; growth control rate is greater than or equal to 50% and less than 70%; 4: growth control rate is greater than or equal to 30% and less than 50%; growth control rate is greater than or equal to 20% and less than 30%; growth control rate is greater than or equal to 10% and less than 20%; growth control rate is less than 10%; 0: no effect; conditions: 30 g a.i./ha
major crops = test: Pre-emergence test experiment (crops); assay type: in vivo; parameters: key: 9: completely dead; 8: growth control rate is greater than or equal to 90% and less than 100%; 7: growth control rate is greater than or equal to 80% and less than 90%; 6: growth control rate is greater than or equal to 70% and less than 80%; growth control rate is greater than or equal to 50% and less than 70%; 4: growth control rate is greater than or equal to 30% and less than 50%; growth control rate is greater than or equal to 20% and less than 30%; growth control rate is greater than or equal to 10% and less than 20%; growth control rate is less than 10%; 0: no effect; conditions: 30 g a.i./ha

SMILES: COCc1ccc(-n2cnc(C(F)(F)F)n2)nc1Oc1ccc(F)c(C(F)(F)F)c1 [Compound 143]
- Pre-emergence activity level (growth control rate) on Amaranthus retroflexus [1]: 9
- Pre-emergence activity level (growth control rate) on Descurainia sophia [1]: 9
- Pre-emergence activity level (growth control rate) on Digitaria sanguinalis [1]: 8 (growth control rate is greater than or equal to 90% and less than 100%)
- Pre-emergence activity level (growth control rate) on Setaria viridis [1]: 9
- Pre-emergence activity level (growth control rate) on Solanum nigrum [1]: 9
- Pre-emergence activity level (growth control rate) on Veronica [1]: 9
- Pre-emergence plant damage level (growth control rate) on Corn (major crops): 0
- Pre-emergence plant damage level (growth control rate) on Cotton (major crops): 0
- Pre-emergence plant damage level (growth control rate) on Soybean (major crops): 0

SMILES: COc1cc(Oc2ccc(F)c(C(F)(F)F)c2)nc(-n2cnc(C(F)(F)F)n2)c1 [Compound 76]
- Pre-emergence activity level (growth control rate) on Amaranthus retroflexus [1]: 9
- Pre-emergence activity level (growth control rate) on Descurainia sophia [1]: 9
- Pre-emergence activity level (growth control rate) on Digitaria sanguinalis [1]: 9
- Pre-emergence activity level (growth control rate) on Setaria viridis [1]: 8 (growth control rate is greater than or equal to 90% and less than 100%)
- Pre-emergence activity level (growth control rate) on Solanum nigrum [1]: 9
- Pre-emergence activity level (growth control rate) on Veronica [1]: 9
- Pre-emergence plant damage level (growth control rate) on Corn (major crops): 0
- Pre-emergence plant damage level (growth control rate) on Cotton (major crops): 0
- Pre-emergence plant damage level (growth control rate) on Soybean (major crops): 0

SMILES: Cc1ccc(-n2cnc(C(F)(F)F)n2)nc1Oc1cccc(Cl)c1 [Compound 40]
- Pre-emergence activity level (growth control rate) on Amaranthus retroflexus [1]: 9
- Pre-emergence activity level (growth control rate) on Descurainia sophia [1]: 9
- Pre-emergence activity level (growth control rate) on Digitaria sanguinalis [1]: 7 (growth control rate is greater than or equal to 80% and less than 90%)
- Pre-emergence activity level (growth control rate) on Setaria viridis [1]: 7 (growth control rate is greater than or equal to 80% and less than 90%)
- Pre-emergence activity level (growth control rate) on Solanum nigrum [1]: 7 (growth control rate is greater than or equal to 80% and less than 90%)
- Pre-emergence activity level (growth control rate) on Veronica [1]: 9
- Pre-emergence plant damage level (growth control rate) on Corn (major crops): 0
- Pre-emergence plant damage level (growth control rate) on Cotton (major crops): 0
- Pre-emergence plant damage level (growth control rate) on Soybean (major crops): 0

SMILES: Cc1ccc(-n2cnc(C(F)F)n2)nc1Oc1cccc(C(F)F)c1 [Compound 84]
- Pre-emergence activity level (growth control rate) on Amaranthus retroflexus [1]: 9
- Pre-emergence activity level (growth control rate) on Descurainia sophia [1]: 9
- Pre-emergence activity level (growth control rate) on Digitaria sanguinalis [1]: 9
- Pre-emergence activity level (growth control rate) on Setaria viridis [1]: 9
- Pre-emergence activity level (growth control rate) on Solanum nigrum [1]: 9
- Pre-emergence activity level (growth control rate) on Veronica [1]: 9
- Pre-emergence plant damage level (growth control rate) on Corn (major crops): 0
- Pre-emergence plant damage level (growth control rate) on Cotton (major crops): 0
- Pre-emergence plant damage level (growth control rate) on Soybean (major crops): 0

SMILES: CCc1ccc(-n2cnc(C(F)(F)F)n2)nc1Oc1ccc(F)c(C(F)(F)F)c1 [Compound 135]
- Pre-emergence activity level (growth control rate) on Amaranthus retroflexus [1]: 9
- Pre-emergence activity level (growth control rate) on Descurainia sophia [1]: 9
- Pre-emergence activity level (growth control rate) on Digitaria sanguinalis [1]: 9
- Pre-emergence activity level (growth control rate) on Setaria viridis [1]: 9
- Pre-emergence activity level (growth control rate) on Solanum nigrum [1]: 9
- Pre-emergence activity level (growth control rate) on Veronica [1]: 9
- Pre-emergence plant damage level (growth control rate) on Corn (major crops): 0
- Pre-emergence plant damage level (growth control rate) on Cotton (major crops): 0
- Pre-emergence plant damage level (growth control rate) on Soybean (major crops): 0

SMILES: Cc1ccc(-n2cnc(C(F)(F)F)n2)nc1Oc1cccc(OC(F)F)c1 [Compound 43]
- Pre-emergence activity level (growth control rate) on Amaranthus retroflexus [1]: 9
- Pre-emergence activity level (growth control rate) on Descurainia sophia [1]: 9
- Pre-emergence activity level (growth control rate) on Digitaria sanguinalis [1]: 9
- Pre-emergence activity level (growth control rate) on Setaria viridis [1]: 8 (growth control rate is greater than or equal to 90% and less than 100%)
- Pre-emergence activity level (growth control rate) on Solanum nigrum [1]: 7 (growth control rate is greater than or equal to 80% and less than 90%)
- Pre-emergence activity level (growth control rate) on Veronica [1]: 9
- Pre-emergence plant damage level (growth control rate) on Corn (major crops): 0
- Pre-emergence plant damage level (growth control rate) on Cotton (major crops): 0
- Pre-emergence plant damage level (growth control rate) on Soybean (major crops): 0

SMILES: COCc1ccc(-n2cnc(C(F)(F)F)n2)nc1Oc1cncc(C(F)(F)F)c1 [Compound 142]
- Pre-emergence activity level (growth control rate) on Amaranthus retroflexus [1]: 9
- Pre-emergence activity level (growth control rate) on Descurainia sophia [1]: 9
- Pre-emergence activity level (growth control rate) on Digitaria sanguinalis [1]: 9
- Pre-emergence activity level (growth control rate) on Setaria viridis [1]: 9
- Pre-emergence activity level (growth control rate) on Solanum nigrum [1]: 9
- Pre-emergence plant damage level (growth control rate) on Corn (major crops): 0
- Pre-emergence plant damage level (growth control rate) on Cotton (major crops): 0
- Pre-emergence plant damage level (growth control rate) on Soybean (major crops): 0

SMILES: CCc1ccc(-n2cnc(C(F)(F)F)n2)nc1Oc1cncc(C(F)(F)F)c1 [Compound 17]
- Pre-emergence activity level (growth control rate) on Amaranthus retroflexus [1]: 9
- Pre-emergence activity level (growth control rate) on Descurainia sophia [1]: 9
- Pre-emergence activity level (growth control rate) on Digitaria sanguinalis [1]: 9
- Pre-emergence activity level (growth control rate) on Setaria viridis [1]: 9
- Pre-emergence activity level (growth control rate) on Solanum nigrum [1]: 9
- Pre-emergence activity level (growth control rate) on Veronica [1]: 9
- Pre-emergence plant damage level (growth control rate) on Corn (major crops): 0
- Pre-emergence plant damage level (growth control rate) on Cotton (major crops): 0
- Pre-emergence plant damage level (growth control rate) on Soybean (major crops): 0

SMILES: COCc1ccc(-n2cnc(C(F)(F)F)n2)nc1Oc1cccc(C(F)F)c1 [Compound 144]
- Pre-emergence activity level (growth control rate) on Amaranthus retroflexus [1]: 9
- Pre-emergence activity level (growth control rate) on Descurainia sophia [1]: 9
- Pre-emergence activity level (growth control rate) on Digitaria sanguinalis [1]: 8 (growth control rate is greater than or equal to 90% and less than 100%)
- Pre-emergence activity level (growth control rate) on Setaria viridis [1]: 9
- Pre-emergence activity level (growth control rate) on Solanum nigrum [1]: 9
- Pre-emergence activity level (growth control rate) on Veronica [1]: 9
- Pre-emergence plant damage level (growth control rate) on Corn (major crops): 0
- Pre-emergence plant damage level (growth control rate) on Cotton (major crops): 0
- Pre-emergence plant damage level (growth control rate) on Soybean (major crops): 0

SMILES: COc1cc(Oc2cccc(C(F)(F)F)c2)nc(-n2cnc(C(F)(F)F)n2)c1 [Compound 3]
- Pre-emergence activity level (growth control rate) on Amaranthus retroflexus [1]: 9
- Pre-emergence activity level (growth control rate) on Descurainia sophia [1]: 9
- Pre-emergence activity level (growth control rate) on Digitaria sanguinalis [1]: 8 (growth control rate is greater than or equal to 90% and less than 100%)
- Pre-emergence activity level (growth control rate) on Setaria viridis [1]: 9
- Pre-emergence activity level (growth control rate) on Solanum nigrum [1]: 9
- Pre-emergence activity level (growth control rate) on Veronica [1]: 9
- Pre-emergence plant damage level (growth control rate) on Corn (major crops): 0
- Pre-emergence plant damage level (growth control rate) on Cotton (major crops): 0
- Pre-emergence plant damage level (growth control rate) on Soybean (major crops): 0

SMILES: FC(F)(F)c1cccc(Oc2nc(-n3cnc(C(F)(F)F)n3)ccc2C2CC2)c1 [Compound 22]
- Pre-emergence activity level (growth control rate) on Amaranthus retroflexus [1]: 9
- Pre-emergence activity level (growth control rate) on Descurainia sophia [1]: 9
- Pre-emergence activity level (growth control rate) on Digitaria sanguinalis [1]: 7 (growth control rate is greater than or equal to 80% and less than 90%)
- Pre-emergence activity level (growth control rate) on Setaria viridis [1]: 8 (growth control rate is greater than or equal to 90% and less than 100%)
- Pre-emergence activity level (growth control rate) on Solanum nigrum [1]: 7 (growth control rate is greater than or equal to 80% and less than 90%)
- Pre-emergence activity level (growth control rate) on Veronica [1]: 9
- Pre-emergence plant damage level (growth control rate) on Corn (major crops): 0
- Pre-emergence plant damage level (growth control rate) on Cotton (major crops): 0
- Pre-emergence plant damage level (growth control rate) on Soybean (major crops): 0

SMILES: COCc1ccc(-n2cnc(C(F)(F)F)n2)nc1Oc1cccc(C)c1 [Compound 149]
- Pre-emergence activity level (growth control rate) on Digitaria sanguinalis [1]: 8 (growth control rate is greater than or equal to 90% and less than 100%)
- Pre-emergence activity level (growth control rate) on Setaria viridis [1]: 8 (growth control rate is greater than or equal to 90% and less than 100%)
- Pre-emergence plant damage level (growth control rate) on Corn (major crops): 0
- Pre-emergence plant damage level (growth control rate) on Cotton (major crops): 0
- Pre-emergence plant damage level (growth control rate) on Soybean (major crops): 0

SMILES: Cc1ccc(-n2cnc(C(F)(F)F)n2)nc1Oc1ccc(F)c(OC(F)(F)F)c1 [Compound 66]
- Pre-emergence activity level (growth control rate) on Amaranthus retroflexus [1]: 9
- Pre-emergence activity level (growth control rate) on Descurainia sophia [1]: 9
- Pre-emergence activity level (growth control rate) on Digitaria sanguinalis [1]: 9
- Pre-emergence activity level (growth control rate) on Setaria viridis [1]: 9
- Pre-emergence activity level (growth control rate) on Solanum nigrum [1]: 9
- Pre-emergence activity level (growth control rate) on Veronica [1]: 9
- Pre-emergence plant damage level (growth control rate) on Corn (major crops): 0
- Pre-emergence plant damage level (growth control rate) on Cotton (major crops): 0
- Pre-emergence plant damage level (growth control rate) on Soybean (major crops): 0

SMILES: COc1cc(Oc2cccc(OC(F)(F)F)c2)nc(-n2cnc(C(F)(F)F)n2)c1 [Compound 78]
- Pre-emergence activity level (growth control rate) on Amaranthus retroflexus [1]: 9
- Pre-emergence activity level (growth control rate) on Descurainia sophia [1]: 9
- Pre-emergence activity level (growth control rate) on Digitaria sanguinalis [1]: 9
- Pre-emergence activity level (growth control rate) on Setaria viridis [1]: 8 (growth control rate is greater than or equal to 90% and less than 100%)
- Pre-emergence activity level (growth control rate) on Solanum nigrum [1]: 8 (growth control rate is greater than or equal to 90% and less than 100%)
- Pre-emergence activity level (growth control rate) on Veronica [1]: 9
- Pre-emergence plant damage level (growth control rate) on Corn (major crops): 0
- Pre-emergence plant damage level (growth control rate) on Cotton (major crops): 0
- Pre-emergence plant damage level (growth control rate) on Soybean (major crops): 0

SMILES: CCc1ccc(-n2cnc(C(F)(F)F)n2)nc1Oc1cccc(CF)c1 [Compound 85]
- Pre-emergence activity level (growth control rate) on Amaranthus retroflexus [1]: 9
- Pre-emergence activity level (growth control rate) on Veronica [1]: 9
- Pre-emergence plant damage level (growth control rate) on Corn (major crops): 0
- Pre-emergence plant damage level (growth control rate) on Cotton (major crops): 0
- Pre-emergence plant damage level (growth control rate) on Soybean (major crops): 0
